According to US20240390340A1 (INCYTE CORPORATION, priority 2023, published 2024):

Key:
[1] = target: KRAS G12D (Homo sapiens, UniProt P01116, G12D); test: GDP-GTP exchange assay (bodipy-GDP/GppNHp, SOS1), KRAS G12D; type: biochemical; details: bodipy-loaded KRAS G12D 2.5 nM, 4 h pre-incubation; value for the most potent isomer quoted for certain compounds; read-out: G12D (KRAS G12D exchange assay IC50)
[2] = target: KRAS G12V (Homo sapiens, UniProt P01116, G12V); test: GDP-GTP exchange assay (bodipy-GDP/GppNHp, SOS1), KRAS G12V; type: biochemical; details: KRAS G12V mutant; value for the most potent isomer quoted for certain compounds; read-out: G12V (KRAS G12V exchange assay IC50)
Sequence of KRAS G12V (P01116 1-188 isoform P01116-2 G12V): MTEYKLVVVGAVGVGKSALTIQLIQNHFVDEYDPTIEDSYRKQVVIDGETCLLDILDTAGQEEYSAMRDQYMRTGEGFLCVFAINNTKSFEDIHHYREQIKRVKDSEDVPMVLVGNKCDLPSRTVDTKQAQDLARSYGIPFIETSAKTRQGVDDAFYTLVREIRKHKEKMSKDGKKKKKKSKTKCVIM

Sequence of KRAS G12D (P01116 1-188 isoform P01116-2 G12D): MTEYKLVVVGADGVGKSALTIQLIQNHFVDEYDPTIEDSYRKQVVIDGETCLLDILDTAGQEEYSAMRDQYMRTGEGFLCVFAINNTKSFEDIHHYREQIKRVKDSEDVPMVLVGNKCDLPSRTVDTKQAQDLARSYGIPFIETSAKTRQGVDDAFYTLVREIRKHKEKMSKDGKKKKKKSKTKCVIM

| IC50 [1] [nM] | IC50 [2] [nM] | SMILES |
| --- | --- | --- |
| ≤ 100 | ≤ 100 | Cc1nc(C)n([C@H]2C[C@H](c3cc4c(C)nc5c(F)c(-c6cccc(Cl)c6Cl)c(CCC#N)cc5c4n3[C@H]3[C@H]4CN[C@@H]3C4)N(C(=O)C3CC3)C2)n1 [Example 350] |
| ≤ 100 | ≤ 100 | COc1ccc(O[C@H]2C[C@H](c3cc4c(C)nc5c(F)c(-c6cccc(Cl)c6Cl)c(CCC#N)cc5c4n3[C@H]3[C@H]4CN[C@@H]3C4)N(C(=O)C3CC3)C2)cn1 [Example 301] |
| ≤ 100 | ≤ 100 | Cc1nc2c(F)c(-c3cccc(Cl)c3Cl)c(CCC#N)cc2c2c1cc([C@H]1C[C@H](Oc3ccc(C#N)cc3F)CN1C(=O)C1CC1)n2[C@H]1[C@H]2CN[C@@H]1C2 [Example 291] |
| ≤ 100 | ≤ 100 | Cc1nc2c(F)c(-c3cccc(Cl)c3Cl)c(CCC#N)cc2c2c1cc([C@H]1C[C@H](OCc3nc4ccccc4s3)CN1C(=O)C1CC1)n2[C@H]1[C@H]2CN[C@@H]1C2 [Example 360] |
| ≤ 100 | ≤ 100 | Cc1ccnc(C)c1CO[C@H]1C[C@H](c2cc3c(C)nc4c(F)c(-c5cccc(Cl)c5Cl)c(CCC#N)cc4c3n2[C@H]2[C@H]3CN[C@@H]2C3)N(C(=O)C2CC2)C1 [Example 125] |
| 100 to 1000 | ≤ 100 | Cc1nc2c(F)c(-c3cccc(Cl)c3Cl)c(CCC#N)cc2c2c1cc([C@H]1C[C@H](n3nncc3Cc3ccccc3)CN1C(=O)C1CC1)n2[C@H]1[C@H]2CN[C@@H]1C2 [Example 160] |
| ≤ 100 | ≤ 100 | Cc1nc2c(F)c(-c3cccc(Cl)c3Cl)c(CCC#N)cc2c2c1cc([C@H]1C[C@H](OCc3cn(C4CC4)nn3)CN1C(=O)C1CC1)n2[C@H]1[C@H]2CN[C@@H]1C2 [Example 235] |
| 100 to 1000 | ≤ 100 | N#CCCc1cc2c(nc(C3=CCS(=O)(=O)CC3)c3cc([C@H]4C[C@H](OCc5c(F)cccc5F)CN4C(=O)C4CC4)n([C@H]4[C@H]5CN[C@@H]4C5)c32)c(F)c1-c1cccc(Cl)c1Cl [Example 240] |
| ≤ 100 | ≤ 100 | COc1cnn([C@H]2C[C@H](c3cc4c(C)nc5c(F)c(-c6cccc(Cl)c6Cl)c(CCC#N)cc5c4n3[C@H]3[C@H]4CN[C@@H]3C4)N(C(=O)C3CC3)C2)c1 [Example 352] |
| ≤ 100 | ≤ 100 | Cc1nc2c(F)c(-c3cccc(Cl)c3Cl)c(CCC#N)cc2c2c1cc([C@H]1C[C@H](n3cc(CCc4ccccc4)nn3)CN1C(=O)C1CC1)n2[C@H]1[C@H]2CN[C@@H]1C2 [Example 389] |
| ≤ 100 | ≤ 100 | Cc1nc2c(F)c(-c3cccc(Cl)c3Cl)c(CCC#N)cc2c2c1cc([C@H]1C[C@H](n3nnc(-c4ccccc4)n3)CN1C(=O)C1CC1)n2[C@H]1[C@H]2CN[C@@H]1C2 [Example 399] |
| ≤ 100 | ≤ 100 | Cc1nc2c(F)c(-c3cccc(Cl)c3Cl)c(CCC#N)cc2c2c1cc([C@H]1C[C@H](OC[C@H]3C[C@H](C#N)C3)CN1C(=O)C1CC1)n2[C@H]1[C@H]2CN[C@@H]1C2 [Example 402] |
| ≤ 100 | ≤ 100 | Cc1nc2c(F)c(-c3cccc(Cl)c3Cl)c(CCC#N)cc2c2c1cc([C@H]1C[C@H](Oc3cncnc3)CN1C(=O)C1CC1)n2[C@H]1[C@H]2CN[C@@H]1C2 [Example 136] |
| ≤ 100 | ≤ 100 | CN1CCC(c2nc3c(F)c(-c4cccc(Cl)c4Cl)c(CCC#N)cc3c3c2cc([C@H]2C[C@H](OCc4c(F)cccc4F)CN2C(=O)C2CC2)n3[C@H]2[C@H]3CN[C@@H]2C3)CC1 [Example 236] |
| ≤ 100 | 100 to 1000 | Cc1nc2c(F)c(-c3cccc(Cl)c3Cl)c(CCC#N)cc2c2c1cc([C@H]1C[C@H](n3nnc(-c4cccc(OC(F)(F)F)c4)n3)CN1C(=O)C1CC1)n2[C@H]1[C@H]2CN[C@@H]1C2 [Example 436] |
| ≤ 100 | ≤ 100 | Cc1nc2c(F)c(-c3cccc(Cl)c3Cl)c(CCC#N)cc2c2c1cc([C@H]1C[C@H](Oc3cc(N4CC(C(F)F)C4)ccn3)CN1C(=O)C1CC1)n2[C@H]1[C@H]2CN[C@@H]1C2 [Example 371] |
| ≤ 100 | ≤ 100 | Cc1nc2c(F)c(-c3cccc(Cl)c3Cl)c(CCC#N)cc2c2c1cc([C@H]1C[C@H](Oc3cccnc3N)CN1C(=O)C1CC1)n2[C@H]1[C@H]2CN[C@@H]1C2 [Example 288] |
| ≤ 100 | 100 to 1000 | Cc1nc2c(F)c(-c3cccc(Cl)c3Cl)c(CCC#N)cc2c2c1cc([C@H]1C[C@H](n3c(=O)n(C)c4ccccc43)CN1C(=O)C1CC1)n2[C@H]1[C@H]2CN[C@@H]1C2 [Example 321] |
| ≤ 100 | ≤ 100 | COC(=O)[C@H]1C[C@H]1c1cn([C@H]2C[C@H](c3cc4c(C)nc5c(F)c(-c6cccc(Cl)c6Cl)c(CCC#N)cc5c4n3[C@H]3[C@H]4CN[C@@H]3C4)N(C(=O)C3CC3)C2)nn1 [Example 390] |
| ≤ 100 | ≤ 100 | [2H]C([2H])(O[C@H]1C[C@H](c2cc3c(C)nc4c(F)c(-c5cccc(Cl)c5Cl)c(CCC#N)cc4c3n2[C@H]2[C@H]3CN[C@@H]2C3)N(C(=O)C2CC2)[C@@H]1C)c1cc(C)sn1 [Example 241] |

| IC50 [1] [nM] | IC50 [2] [nM] | SMILES |
| --- | --- | --- |
| ≤ 100 | ≤ 100 | Cc1nc2c(F)c(-c3cccc(Cl)c3Cl)c(CCC#N)cc2c2c1cc([C@H]1C[C@H](Oc3cnn(CC(F)F)c3C)CN1C(=O)C1CC1)n2[C@H]1[C@H]2CN[C@@H]1C2 [Example 410] |
| ≤ 100 | ≤ 100 | Cc1nc2c(F)c(-c3cccc(Cl)c3Cl)c(CCC#N)cc2c2c1cc([C@H]1C[C@H](n3cc(C4CC4)nn3)CN1C(=O)C1CC1)n2[C@H]1[C@H]2CN[C@@H]1C2 [Example 179] |
| ≤ 100 | ≤ 100 | CO[C@H]1C[C@H](CO[C@H]2C[C@H](c3cc4c(C)nc5c(F)c(-c6cccc(Cl)c6Cl)c(CCC#N)cc5c4n3[C@H]3[C@H]4CN[C@@H]3C4)N(C(=O)C3CC3)C2)C1 [Example 401] |
| ≤ 100 | ≤ 100 | Cc1nc2c(F)c(-c3cccc(Cl)c3Cl)c(CCC#N)cc2c2c1cc([C@H]1C[C@H](n3ccc(CC#N)n3)CN1C(=O)C1CC1)n2[C@H]1[C@H]2CN[C@@H]1C2 [Example 316] |
| ≤ 100 | ≤ 100 | Cc1nc2c(F)c(-c3cccc(Cl)c3Cl)c(CCC#N)cc2c2c1cc([C@H]1C[C@H](OCc3ccn(C(F)(F)F)n3)CN1C(=O)C1(C)CC1)n2[C@H]1[C@H]2CN[C@@H]1C2 [Example 310] |
| ≤ 100 | ≤ 100 | Cc1nc2c(F)c(-c3cccc(Cl)c3Cl)c(CCC#N)cc2c2c1cc([C@H]1C[C@H](OCc3ccns3)CN1C(=O)C1CC1)n2[C@H]1[C@H]2CN[C@@H]1C2 [Example 257] |
| ≤ 100 | ≤ 100 | Cc1nc2c(F)c(-c3cccc(Cl)c3Cl)c(CCC#N)cc2c2c1cc([C@H]1C[C@H](OCc3cc(C(F)(F)F)on3)CN1C(=O)C1CC1)n2[C@H]1[C@H]2CN[C@@H]1C2 [Example 361] |
| ≤ 100 | ≤ 100 | Cc1nc2c(F)c(-c3cccc(Cl)c3Cl)c(CCC#N)cc2c2c1cc([C@H]1C[C@H](Oc3cnccc3C#N)CN1C(=O)C1CC1)n2[C@H]1[C@H]2CN[C@@H]1C2 [Example 302] |
| ≤ 100 | ≤ 100 | Cc1nc2c(F)c(-c3cccc(Cl)c3Cl)c(CCC#N)cc2c2c1cc([C@H]1C[C@H](n3nncc3-c3ccccc3)CN1C(=O)C1CC1)n2[C@H]1[C@H]2CN[C@@H]1C2 [Example 143] |
| ≤ 100 | ≤ 100 | Cc1nc2c(F)c(-c3cccc(Cl)c3Cl)c(CCC#N)cc2c2c1cc([C@H]1C[C@H](Oc3cc(Cl)cc(C#N)c3)CN1C(=O)C1CC1)n2[C@H]1[C@H]2CN[C@@H]1C2 [Example 191] |
| ≤ 100 | ≤ 100 | Cc1nc2c(F)c(-c3cccc(Cl)c3Cl)c(CCC#N)cc2c2c1cc([C@H]1C[C@H](n3cc(CC4CCNC4=O)nn3)CN1C(=O)C1CC1)n2[C@H]1[C@H]2CN[C@@H]1C2 (some centres unmarked) [Example 269] |
| ≤ 100 | ≤ 100 | Cc1nc2c(F)c(-c3cccc(Cl)c3Cl)c(CCC#N)cc2c2c1cc([C@H]1C[C@H](Oc3ccccc3F)CN1C(=O)C1CC1)n2[C@H]1[C@H]2CN[C@@H]1C2 [Example 119] |
| ≤ 100 | ≤ 100 | Cc1nc2c(F)c(-c3cccc(Cl)c3Cl)c(CCC#N)cc2c2c1cc([C@H]1C[C@H](n3cc(C(C)N4CCOC4=O)nn3)CN1C(=O)C1CC1)n2[C@H]1[C@H]2CN[C@@H]1C2 (some centres unmarked) [Example 325] |
| ≤ 100 | ≤ 100 | Cc1nc2c(F)c(-c3cccc(Cl)c3Cl)c(CCC#N)cc2c2c1cc([C@H]1C[C@H](Oc3ccccc3OC(F)F)CN1C(=O)C1CC1)n2[C@H]1[C@H]2CN[C@@H]1C2 [Example 248] |
| ≤ 100 | ≤ 100 | Cc1nc2c(F)c(-c3cccc(Cl)c3Cl)c(CCC#N)cc2c2c1cc([C@H]1C[C@H](OC3CCC(O)CC3)CN1C(=O)C1CC1)n2[C@H]1[C@H]2CN[C@@H]1C2 (some centres unmarked) [Example 336] |
| ≤ 100 | ≤ 100 | Cc1nc2c(F)c(-c3cccc(Cl)c3Cl)c(CCC#N)cc2c2c1cc([C@H]1C[C@H](n3nnc(-c4ccncc4)n3)CN1C(=O)C1CC1)n2[C@H]1[C@H]2CN[C@@H]1C2 (atropisomer, axis not shown) [Example 437] |
| ≤ 100 | ≤ 100 | Cc1nc2c(F)c(-c3cccc(Cl)c3Cl)c(CCC#N)cc2c2c1cc([C@H]1C[C@H](Oc3cccc(C(=O)N(C)C)c3)CN1C(=O)C1CC1)n2[C@H]1[C@H]2CN[C@@H]1C2 [Example 174] |
| ≤ 100 | ≤ 100 | Cc1nc2c(F)c(-c3cccc(Cl)c3Cl)c(CCC#N)cc2c2c1cc([C@H]1C[C@H](OCc3ccc(Cl)cc3F)CN1C(=O)C1CC1)n2[C@H]1[C@H]2CN[C@@H]1C2 [Example 155] |
| ≤ 100 | ≤ 100 | Cc1nc2c(F)c(-c3cccc(Cl)c3Cl)c(CCC#N)cc2c2c1cc([C@H]1C[C@H](Oc3ccc4ccccc4n3)CN1C(=O)C1CC1)n2[C@H]1[C@H]2CN[C@@H]1C2 [Example 121] |

| SMILES | IC50 [1] [nM] | IC50 [2] [nM] |
| --- | --- | --- |
| Cc1nc2c(F)c(-c3cccc(Cl)c3Cl)c(CCC#N)cc2c2c1cc([C@H]1C[C@H](OC3CCCC3)CN1C(=O)C1CC1)n2[C@H]1[C@H]2CN[C@@H]1C2 [Example 238] | ≤ 100 | ≤ 100 |
